In publication PMC12300041, “Tricyclic Isatin Derivatives as Anti-Inflammatory Compounds with High Kinase Binding Affinity” (Molecules, 2025):

Experiments:
Assay in all cases: KINOMEscan
Assay type in all cases: binding
[1] = biological target: T1, CSNK1G1 (Homo sapiens, UniProt Q9HCP0)
T1 construct: purchased Eurofins DiscoverX KINOMEscan
Summary of the method: (§1)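 Dissociation constants derive from a 12-point, half-log compound titration (highest 33 μM). Each binding reaction ran 1 h at room temperature before qPCR quantification of kinase captured on an immobilized affinity ligand.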

[2] = biological target: T2, PRKR (Homo sapiens, UniProt P19525)
T2 construct: purchased Eurofins DiscoverX KINOMEscan
Summary of the method: as §1

[3] = biological target: T3, MERTK (Homo sapiens, UniProt Q12866)
T3 construct: purchased Eurofins DiscoverX KINOMEscan
Summary of the method: as §1

[4] = biological target: T4, BRAF (V600E) (Homo sapiens, UniProt P15056, V600E)
T4 construct: purchased Eurofins DiscoverX KINOMEscan
Summary of the method: as §1

[5] = biological target: T5, CSF1R (Homo sapiens, UniProt P07333)
T5 construct: purchased Eurofins DiscoverX KINOMEscan
Summary of the method: as §1

[6] = biological target: T6, PRKG1 (Homo sapiens, UniProt Q13976)
T6 construct: purchased Eurofins DiscoverX KINOMEscan
Summary of the method: as §1

[7] = biological target: T7, MAK (Homo sapiens, UniProt P20794)
T7 construct: purchased Eurofins DiscoverX KINOMEscan
Summary of the method: as §1

[8] = biological target: T8, ERBB2 (Homo sapiens, UniProt P04626)
T8 construct: purchased Eurofins DiscoverX KINOMEscan
Summary of the method: as §1

[9] = biological target: T9, RET (V804M) (Homo sapiens, UniProt P07949, V804M)
T9 construct: purchased Eurofins DiscoverX KINOMEscan
Summary of the method: as §1

[10] = biological target: T10, PHKG1 (Homo sapiens, UniProt Q16816)
T10 construct: purchased Eurofins DiscoverX KINOMEscan
Summary of the method: as §1

[11] = biological target: T11, MST3 (Homo sapiens, UniProt Q9Y6E0)
T11 construct: purchased Eurofins DiscoverX KINOMEscan
Summary of the method: as §1

[12] = biological target: T12, RSK3 (Kin. Dom.1-N-term.) (Homo sapiens, UniProt Q15349)
T12 construct: RSK3 (Kin. Dom.1-N-term.); purchased Eurofins DiscoverX KINOMEscan
Summary of the method: as §1

[13] = biological target: T13, PFTK1 (Homo sapiens, UniProt O94921)
T13 construct: purchased Eurofins DiscoverX KINOMEscan
Summary of the method: as §1

[14] = biological target: T14, SYK (Homo sapiens, UniProt P43405)
T14 construct: purchased Eurofins DiscoverX KINOMEscan
Summary of the method: as §1

[15] = biological target: T15, ACVR2A (Homo sapiens, UniProt P27037)
T15 construct: purchased Eurofins DiscoverX KINOMEscan
Summary of the method: as §1

[16] = biological target: T16, EPHB3 (Homo sapiens, UniProt P54753)
T16 construct: purchased Eurofins DiscoverX KINOMEscan
Summary of the method: as §1

[17] = biological target: T17, TTK (Homo sapiens, UniProt P33981)
T17 construct: purchased Eurofins DiscoverX KINOMEscan
Summary of the method: as §1

[18] = biological target: T18, NEK6 (Homo sapiens, UniProt Q9HC98)
T18 construct: purchased Eurofins DiscoverX KINOMEscan
Summary of the method: as §1

[19] = biological target: T19, FAK (Homo sapiens, UniProt Q05397)
T19 construct: purchased Eurofins DiscoverX KINOMEscan
Summary of the method: as §1

[20] = biological target: T20, PRKD3 (Homo sapiens, UniProt O94806)
T20 construct: purchased Eurofins DiscoverX KINOMEscan
Summary of the method: as §1

[21] = biological target: T21, CDK2 (Homo sapiens, UniProt P24941)
T21 construct: purchased Eurofins DiscoverX KINOMEscan
Summary of the method: as §1

[22] = biological target: T22, ABL1-non-P (Homo sapiens, UniProt P00519)
T22 construct: purchased Eurofins DiscoverX KINOMEscan
Summary of the method: as §1

[23] = biological target: T23, RSK3 (Kin. Dom.2-C-term.) (Homo sapiens, UniProt Q15349)
T23 construct: RSK3 (Kin. Dom.2-C-term.); purchased Eurofins DiscoverX KINOMEscan
Summary of the method: as §1

[24] = biological target: T24, PKMYT1 (Homo sapiens, UniProt Q99640)
T24 construct: purchased Eurofins DiscoverX KINOMEscan
Summary of the method: as §1

[25] = biological target: T25, IGF1R (Homo sapiens, UniProt P08069)
T25 construct: purchased Eurofins DiscoverX KINOMEscan
Summary of the method: as §1

[26] = biological target: T26, ABL1 (F317L)-P (Homo sapiens, UniProt P00519, F317L)
T26 construct: purchased Eurofins DiscoverX KINOMEscan
Summary of the method: as §1

[27] = biological target: T27, JNK3 (Homo sapiens, UniProt P53779)
T27 construct: purchased Eurofins DiscoverX KINOMEscan
Summary of the method: as §1

[28] = biological target: T28, ROCK1 (Homo sapiens, UniProt Q13464)
T28 construct: purchased Eurofins DiscoverX KINOMEscan
Summary of the method: as §1

[29] = biological target: T29, FLT3 (K663Q) (Homo sapiens, UniProt P36888, K663Q)
T29 construct: purchased Eurofins DiscoverX KINOMEscan
Summary of the method: as §1

[30] = biological target: T30, ZAK (Homo sapiens, UniProt Q9NYL2)
T30 construct: purchased Eurofins DiscoverX KINOMEscan
Summary of the method: as §1

[31] = biological target: T31, TNK2 (Homo sapiens, UniProt Q07912)
T31 construct: purchased Eurofins DiscoverX KINOMEscan
Summary of the method: as §1

[32] = biological target: T32, TEC (Homo sapiens, UniProt P42680)
T32 construct: purchased Eurofins DiscoverX KINOMEscan
Summary of the method: as §1

[33] = biological target: T33, ABL2 (Homo sapiens, UniProt P42684)
T33 construct: purchased Eurofins DiscoverX KINOMEscan
Summary of the method: as §1

[34] = biological target: T34, TAOK3 (Homo sapiens, UniProt Q9H2K8)
T34 construct: purchased Eurofins DiscoverX KINOMEscan
Summary of the method: as §1

[35] = biological target: T35, CDKL1 (Homo sapiens, UniProt Q00532)
T35 construct: purchased Eurofins DiscoverX KINOMEscan
Summary of the method: as §1

[36] = biological target: T36, TAK1 (Homo sapiens, UniProt O43318)
T36 construct: purchased Eurofins DiscoverX KINOMEscan
Summary of the method: as §1

[37] = biological target: T37, RSK1 (Kin. Dom.2-C-term.) (Homo sapiens, UniProt Q15418)
T37 construct: RSK1 (Kin. Dom.2-C-term.); purchased Eurofins DiscoverX KINOMEscan
Summary of the method: as §1

[38] = biological target: T38, CDKL5 (Homo sapiens, UniProt O76039)
T38 construct: purchased Eurofins DiscoverX KINOMEscan
Summary of the method: as §1

T26 sequence (P00519 whole entry F317L): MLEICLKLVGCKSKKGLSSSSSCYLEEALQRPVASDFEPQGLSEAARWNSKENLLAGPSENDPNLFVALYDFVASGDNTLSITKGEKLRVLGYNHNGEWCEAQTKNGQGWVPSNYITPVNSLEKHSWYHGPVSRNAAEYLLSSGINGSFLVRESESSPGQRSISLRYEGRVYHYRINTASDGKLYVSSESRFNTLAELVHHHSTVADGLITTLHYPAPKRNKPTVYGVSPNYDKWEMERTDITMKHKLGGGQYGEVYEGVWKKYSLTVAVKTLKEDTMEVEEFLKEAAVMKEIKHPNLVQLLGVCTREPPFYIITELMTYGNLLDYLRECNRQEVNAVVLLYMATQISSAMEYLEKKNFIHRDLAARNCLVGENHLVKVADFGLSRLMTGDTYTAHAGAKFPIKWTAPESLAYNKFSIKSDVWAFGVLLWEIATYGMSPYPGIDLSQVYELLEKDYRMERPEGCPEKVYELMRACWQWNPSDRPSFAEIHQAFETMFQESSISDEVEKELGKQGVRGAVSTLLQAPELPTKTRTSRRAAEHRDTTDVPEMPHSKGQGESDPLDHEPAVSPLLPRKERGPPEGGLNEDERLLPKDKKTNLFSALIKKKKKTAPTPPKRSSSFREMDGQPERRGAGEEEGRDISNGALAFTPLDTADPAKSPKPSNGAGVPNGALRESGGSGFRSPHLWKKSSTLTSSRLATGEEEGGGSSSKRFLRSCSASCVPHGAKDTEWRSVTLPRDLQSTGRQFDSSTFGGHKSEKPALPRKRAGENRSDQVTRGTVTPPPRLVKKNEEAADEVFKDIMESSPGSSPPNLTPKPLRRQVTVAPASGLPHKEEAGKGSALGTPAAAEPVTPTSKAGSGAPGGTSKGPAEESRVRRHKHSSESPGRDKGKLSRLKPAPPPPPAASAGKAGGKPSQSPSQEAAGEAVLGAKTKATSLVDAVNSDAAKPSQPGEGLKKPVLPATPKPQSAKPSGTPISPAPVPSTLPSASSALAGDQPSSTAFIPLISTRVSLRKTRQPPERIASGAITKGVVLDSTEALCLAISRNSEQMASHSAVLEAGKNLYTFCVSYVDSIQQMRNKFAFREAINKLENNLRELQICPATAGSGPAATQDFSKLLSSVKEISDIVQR
T35 sequence (Q00532 whole entry): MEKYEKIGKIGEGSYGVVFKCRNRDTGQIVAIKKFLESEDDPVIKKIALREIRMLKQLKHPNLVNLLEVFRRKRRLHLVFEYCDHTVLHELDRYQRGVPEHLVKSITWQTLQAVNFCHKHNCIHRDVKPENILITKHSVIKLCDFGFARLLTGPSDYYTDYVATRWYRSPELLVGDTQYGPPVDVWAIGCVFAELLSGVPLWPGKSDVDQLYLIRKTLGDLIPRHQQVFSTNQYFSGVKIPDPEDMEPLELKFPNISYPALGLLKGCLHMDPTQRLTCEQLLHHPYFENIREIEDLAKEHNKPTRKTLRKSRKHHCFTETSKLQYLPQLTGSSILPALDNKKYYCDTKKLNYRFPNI
T23 sequence (Q15349 389-733 limits assumed): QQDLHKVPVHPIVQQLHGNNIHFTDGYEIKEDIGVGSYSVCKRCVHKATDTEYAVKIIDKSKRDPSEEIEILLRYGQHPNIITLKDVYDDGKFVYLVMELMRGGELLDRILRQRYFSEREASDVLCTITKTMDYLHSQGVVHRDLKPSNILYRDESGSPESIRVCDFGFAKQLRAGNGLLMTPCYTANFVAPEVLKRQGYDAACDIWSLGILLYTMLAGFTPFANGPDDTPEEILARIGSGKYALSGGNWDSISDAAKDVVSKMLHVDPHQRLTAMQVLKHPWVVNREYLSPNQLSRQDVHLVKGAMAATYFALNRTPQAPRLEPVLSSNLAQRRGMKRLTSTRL
T11 sequence (Q9Y6E0 whole entry): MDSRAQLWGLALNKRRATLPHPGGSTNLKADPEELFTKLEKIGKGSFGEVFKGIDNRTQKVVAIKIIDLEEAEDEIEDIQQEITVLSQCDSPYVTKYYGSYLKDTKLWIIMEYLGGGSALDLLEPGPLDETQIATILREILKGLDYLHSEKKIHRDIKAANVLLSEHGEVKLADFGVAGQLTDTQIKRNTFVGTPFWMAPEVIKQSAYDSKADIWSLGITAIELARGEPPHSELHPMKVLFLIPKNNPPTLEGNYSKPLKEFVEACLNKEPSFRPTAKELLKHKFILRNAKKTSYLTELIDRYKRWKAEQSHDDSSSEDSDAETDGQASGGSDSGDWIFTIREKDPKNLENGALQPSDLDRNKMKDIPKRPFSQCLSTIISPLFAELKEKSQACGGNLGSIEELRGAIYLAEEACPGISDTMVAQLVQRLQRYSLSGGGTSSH
T6 sequence (Q13976 whole entry): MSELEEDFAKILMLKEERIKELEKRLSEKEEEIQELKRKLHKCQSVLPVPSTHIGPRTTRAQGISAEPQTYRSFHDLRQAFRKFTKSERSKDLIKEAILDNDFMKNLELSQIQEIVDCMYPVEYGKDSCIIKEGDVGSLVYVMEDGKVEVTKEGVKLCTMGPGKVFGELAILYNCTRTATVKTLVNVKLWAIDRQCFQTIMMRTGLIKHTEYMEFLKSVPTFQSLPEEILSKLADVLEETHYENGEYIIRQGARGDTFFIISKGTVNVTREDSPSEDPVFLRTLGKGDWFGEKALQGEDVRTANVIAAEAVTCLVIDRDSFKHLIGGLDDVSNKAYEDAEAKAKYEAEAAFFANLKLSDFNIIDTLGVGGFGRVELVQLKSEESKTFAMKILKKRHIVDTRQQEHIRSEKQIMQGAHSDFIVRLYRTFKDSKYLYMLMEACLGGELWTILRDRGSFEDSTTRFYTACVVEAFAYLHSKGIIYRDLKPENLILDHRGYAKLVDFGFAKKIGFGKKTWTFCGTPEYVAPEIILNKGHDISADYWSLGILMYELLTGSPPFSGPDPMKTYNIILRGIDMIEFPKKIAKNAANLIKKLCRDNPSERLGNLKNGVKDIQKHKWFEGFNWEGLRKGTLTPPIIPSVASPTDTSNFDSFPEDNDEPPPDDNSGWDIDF
T19 sequence (Q05397 whole entry): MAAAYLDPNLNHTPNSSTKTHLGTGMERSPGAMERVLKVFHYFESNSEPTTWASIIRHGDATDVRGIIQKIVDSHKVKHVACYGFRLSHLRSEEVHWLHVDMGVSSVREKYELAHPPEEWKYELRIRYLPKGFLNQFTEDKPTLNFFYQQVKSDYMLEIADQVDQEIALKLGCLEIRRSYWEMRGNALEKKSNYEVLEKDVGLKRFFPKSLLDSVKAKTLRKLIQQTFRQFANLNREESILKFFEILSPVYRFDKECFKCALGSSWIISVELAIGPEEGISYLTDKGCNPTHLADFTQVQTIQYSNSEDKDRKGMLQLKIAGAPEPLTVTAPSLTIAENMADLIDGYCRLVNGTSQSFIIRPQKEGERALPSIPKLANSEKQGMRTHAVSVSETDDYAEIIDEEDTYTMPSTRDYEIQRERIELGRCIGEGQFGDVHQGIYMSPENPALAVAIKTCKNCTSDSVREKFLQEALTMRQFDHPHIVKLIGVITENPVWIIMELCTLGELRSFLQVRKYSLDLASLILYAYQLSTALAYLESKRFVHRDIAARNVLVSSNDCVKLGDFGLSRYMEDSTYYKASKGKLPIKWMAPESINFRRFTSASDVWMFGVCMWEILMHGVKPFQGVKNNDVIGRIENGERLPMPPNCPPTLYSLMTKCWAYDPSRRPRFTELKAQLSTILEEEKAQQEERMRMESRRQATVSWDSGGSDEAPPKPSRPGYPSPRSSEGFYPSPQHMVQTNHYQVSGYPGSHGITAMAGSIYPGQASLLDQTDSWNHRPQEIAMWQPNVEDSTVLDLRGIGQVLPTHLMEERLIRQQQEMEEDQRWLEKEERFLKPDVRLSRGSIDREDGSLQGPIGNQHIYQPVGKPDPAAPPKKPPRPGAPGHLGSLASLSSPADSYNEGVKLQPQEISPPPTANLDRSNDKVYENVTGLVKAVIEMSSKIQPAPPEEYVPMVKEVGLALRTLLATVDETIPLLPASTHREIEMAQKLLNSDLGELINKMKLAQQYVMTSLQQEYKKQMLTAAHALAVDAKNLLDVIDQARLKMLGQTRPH
T2 sequence (P19525 whole entry): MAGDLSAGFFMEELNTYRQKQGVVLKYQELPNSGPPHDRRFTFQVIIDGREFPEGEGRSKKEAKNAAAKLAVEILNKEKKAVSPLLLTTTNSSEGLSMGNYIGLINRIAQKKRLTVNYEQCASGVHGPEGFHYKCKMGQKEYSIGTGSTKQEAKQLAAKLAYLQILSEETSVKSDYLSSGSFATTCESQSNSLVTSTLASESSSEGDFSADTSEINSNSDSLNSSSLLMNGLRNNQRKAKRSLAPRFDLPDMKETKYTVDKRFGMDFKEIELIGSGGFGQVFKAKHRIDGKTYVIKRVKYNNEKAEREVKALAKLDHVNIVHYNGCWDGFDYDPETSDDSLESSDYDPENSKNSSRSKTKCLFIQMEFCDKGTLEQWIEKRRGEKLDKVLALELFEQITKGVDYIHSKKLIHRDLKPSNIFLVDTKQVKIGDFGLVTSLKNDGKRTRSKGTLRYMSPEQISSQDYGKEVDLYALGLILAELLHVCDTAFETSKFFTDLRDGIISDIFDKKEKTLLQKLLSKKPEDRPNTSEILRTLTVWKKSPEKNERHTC
T12 sequence (Q15349 1-388 limits assumed): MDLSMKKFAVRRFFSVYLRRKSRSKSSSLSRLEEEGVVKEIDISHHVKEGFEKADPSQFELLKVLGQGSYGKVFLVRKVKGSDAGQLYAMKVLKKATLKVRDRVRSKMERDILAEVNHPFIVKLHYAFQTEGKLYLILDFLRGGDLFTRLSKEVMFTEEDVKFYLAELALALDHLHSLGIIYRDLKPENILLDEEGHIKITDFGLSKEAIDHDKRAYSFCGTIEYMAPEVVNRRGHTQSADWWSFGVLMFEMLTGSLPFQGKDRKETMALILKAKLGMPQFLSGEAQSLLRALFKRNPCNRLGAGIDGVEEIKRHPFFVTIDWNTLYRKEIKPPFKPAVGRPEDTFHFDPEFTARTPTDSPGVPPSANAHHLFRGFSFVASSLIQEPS
T22 sequence (P00519 whole entry): as the sequence (P00519 whole entry F317L) above, with L317F counted along it

With `O=C1Nc2c(cc([N+](=O)[O-])c3c2CCCC3)C1=NO` [Compound 5d, 3-(Hydroxyimino)-5-nitro-1,3,6,7,8,9-hexahydro-2H-benzo[g]indol-2-one] the inhibition at 10 µM [1] was 84%, the inhibition at 10 µM [2] was 6% and the inhibition at 10 µM [3] was 4%. It also gave an inhibition at 10 µM [4] of 23%, an inhibition at 10 µM [5] of 0% and an inhibition at 10 µM [6] of 11%. For the same compound, the inhibition at 10 µM [7] was 5%, the inhibition at 10 µM [8] was 29% and the inhibition at 10 µM [9] was 4%. For the same compound, the inhibition at 10 µM [10] was 0%, the inhibition at 10 µM [11] was 62% and the inhibition at 10 µM [12] was 2%. It also gave an inhibition at 10 µM [13] of 0%, an inhibition at 10 µM [14] of 20% and an inhibition at 10 µM [15] of 10%. For the same compound, the inhibition at 10 µM [16] was 0%, the inhibition at 10 µM [17] was 95.6% and the inhibition at 10 µM [18] was 17%. The inhibition at 10 µM [19] was 19%, the inhibition at 10 µM [20] was 77% and the inhibition at 10 µM [21] was 9%. The inhibition at 10 µM [22] was 54%, the inhibition at 10 µM [23] was 74% and the inhibition at 10 µM [24] was 0%. It also gave an inhibition at 10 µM [25] of 0%, an inhibition at 10 µM ([26]; first of two lines printed ABL1 (F317L)-P) of 23% and an inhibition at 10 µM ([26]; second of two lines printed ABL1 (F317L)-P) of 20%. It also gave an inhibition at 10 µM [27] of 52%, an inhibition at 10 µM [28] of 61% and an inhibition at 10 µM [29] of 5%. The inhibition at 10 µM [30] was 14%, the inhibition at 10 µM [31] was 2% and the inhibition at 10 µM [32] was 9%. It also gave an inhibition at 10 µM [33] of 2%, an inhibition at 10 µM [34] of 65% and an inhibition at 10 µM [35] of 42%. It also gave an inhibition at 10 µM [36] of 67%, an inhibition at 10 µM [37] of 60% and an inhibition at 10 µM [38] of 0%.
